From ChEMBL document CHEMBL4406824, “Phenolic N-monosubstituted carbamates: Antitubercular and toxicity evaluation of multi-targeting compounds” (Eur J Med Chem, 2019)
In brackets after ≈: the same amount, converted by molar mass.

Columns and labels:
[1] = system: Mycolicibacterium smegmatis; assay: Antimycobacterial activity against Mycobacterium smegmatis DSM 43465 after 120 hr by resazurin dye based microdilution method; assay type: functional; settings: DSM 43465, 120 h
Mycolicibacterium aurum = assay: Antimycobacterial activity against Mycobacterium aurum DSM 43999 after 72 hr by resazurin dye based microdilution method; assay type: functional; settings: DSM 43999, 72 h
HepG2 [2] = assay: Cytotoxicity against human HepG2 cells assessed as reduction in cell viability after overnight incubation by MTT assay; assay type: cell-based
Mycobacterium kansasii [3] = assay: Antimycobacterial activity against Mycobacterium kansasii 235/80 after 21 days; assay type: functional; settings: 235/80, 504 h
Mycobacterium kansasii [4] = assay: Antimycobacterial activity against Mycobacterium kansasii 6509/96 after 14 days; assay type: functional; settings: 6509/96, 336 h
Mycobacterium avium [5] = assay: Antimycobacterial activity against Mycobacterium avium 330/88 after 14 days; assay type: functional; settings: 330/88, 336 h
[6] = system: Mycobacterium tuberculosis; assay type: functional, H37Rv 331/88; set-up: reference not given here
Mycobacterium kansasii [7] = assay: Potency index, ratio of p-aminosalicylic acid MIC to compound MIC for antimycobacterial activity against Mycobacterium kansasii 235/80; assay type: functional
Mycobacterium kansasii [8] = assay: Antimycobacterial activity against Mycobacterium kansasii 235/80 after 14 days; assay type: functional; settings: 235/80, 336 h
Mycobacterium kansasii [9] = assay: Antimycobacterial activity against Mycobacterium kansasii 6509/96 after 21 days; assay type: functional; settings: 6509/96, 504 h
[10] = system: Mycobacterium tuberculosis; assay type: functional; settings: H37Rv 331/88, 336 h
[11] = system: Mycobacterium tuberculosis; assay type: functional; settings: H37Rv 331/88, 504 h
Mycobacterium avium [12] = assay: Antimycobacterial activity against Mycobacterium avium 330/88 after 21 days; assay type: functional; settings: 330/88, 504 h
[13] = system: Mycobacterium tuberculosis H37Rv; assay: Inhibition of recombinant Mycobacterium tuberculosis H37Rv ICL1 expressed in Escherichia coli BL21 (DE3) cells at 10 uM using (+)-potassium Ds-threo-isocitrate as substrate by glyoxylate phenyl hydrazone formation assay relative to control
[14] = system: Mycobacterium tuberculosis; assay: Antimycobacterial activity against Mycobacterium tuberculosis H37Ra ITM-M006710 after 48 hr by resazurin dye based microdilution method; assay type: functional; settings: H37Ra ITM-M006710, 48 h
Mycobacterium kansasii [15] = assay: Antimycobacterial activity against Mycobacterium kansasii 235/80 after 7 days; assay type: functional; settings: 235/80, 168 h
in vitro = settings: human, HepG2 cells
Description: Selectivity index, ratio of IC50 for human HepG2 cells to MIC for antimycobacterial activity against Mycobacterium tuberculosis H37Rv

Mycobacterium kansasii [16] = assay: Potency index, ratio of p-aminosalicylic acid MIC to compound MIC for antimycobacterial activity against Mycobacterium kansasii 6509/96; assay type: functional
HepG2 [17] = assay: Cytostatic activity against human HepG2 cells preincubated for overnight in serum free medium followed by compound wash out and further incubated for 72 hrs in presence of serum by MTT assay; assay type: ADME, cell-based
Mycobacterium kansasii [18] = assay: Antimycobacterial activity against Mycobacterium kansasii 6509/96 after 7 days; assay type: functional; settings: 6509/96, 168 h

O=C(NC12CC3CC(CC(C3)C1)C2)Oc1ccc(Cl)cc1C(=O)Nc1ccc(Br)cc1
MIC [1]: 3.12 µg/mL (≈ 6.2 µM)
MIC (Mycolicibacterium aurum): 1.56 µg/mL (≈ 3.1 µM)
IC50 (HepG2 [2]): 4.2 µM
MIC (Mycobacterium kansasii [3]): 8 µM (≈ 4.03 µg/mL)
MIC (Mycobacterium kansasii [4]): 8 µM (≈ 4.03 µg/mL)
MIC (Mycobacterium avium [5]): 8 µM (≈ 4.03 µg/mL)
Ratio [6]: >125
Ratio (Mycobacterium kansasii [7]): >250
MIC (Mycobacterium kansasii [8]): 8 µM (≈ 4.03 µg/mL)
MIC (Mycobacterium kansasii [9]): 8 µM (≈ 4.03 µg/mL)
MIC [10]: 8 µM (≈ 4.03 µg/mL)
MIC [11]: 8 µM (≈ 4.03 µg/mL)
MIC (Mycobacterium avium [12]): 8 µM (≈ 4.03 µg/mL)
inhibition [13]: 18%
MIC [14]: 1.56 µg/mL (≈ 3.1 µM)
MIC (Mycobacterium kansasii [15]): 4 µM (≈ 2.02 µg/mL)
selectivity ratio (in vitro): 0.5
Ratio (Mycobacterium kansasii [16]): >250
IC50 (HepG2 [17]): 4.35 µM
MIC (Mycobacterium kansasii [18]): 4 µM (≈ 2.02 µg/mL)

O=C(NC1CCCCC1)Oc1ccc(Cl)cc1C(=O)Nc1ccc(Br)cc1
MIC [1]: 1.56 µg/mL (≈ 3.45 µM)
MIC (Mycolicibacterium aurum): 1.56 µg/mL (≈ 3.45 µM)
IC50 (HepG2 [2]): > 50 µM
MIC (Mycobacterium kansasii [3]): 8 µM (≈ 3.61 µg/mL)
MIC (Mycobacterium kansasii [4]): 8 µM (≈ 3.61 µg/mL)
MIC (Mycobacterium avium [5]): 8 µM (≈ 3.61 µg/mL)
Ratio [6]: >125
Ratio (Mycobacterium kansasii [7]): >250
MIC (Mycobacterium kansasii [8]): 8 µM (≈ 3.61 µg/mL)
MIC (Mycobacterium kansasii [9]): 8 µM (≈ 3.61 µg/mL)
MIC [10]: 8 µM (≈ 3.61 µg/mL)
MIC [11]: 16 µM (≈ 7.23 µg/mL)
MIC (Mycobacterium avium [12]): 16 µM (≈ 7.23 µg/mL)
inhibition [13]: 16%
MIC [14]: 1.56 µg/mL (≈ 3.45 µM)
MIC (Mycobacterium kansasii [15]): 4 µM (≈ 1.81 µg/mL)
selectivity ratio (in vitro): > 6.3
Ratio (Mycobacterium kansasii [16]): >250
IC50 (HepG2 [17]): 9.4 µM
MIC (Mycobacterium kansasii [18]): 4 µM (≈ 1.81 µg/mL)

O=C(NC1CCCCC1)Oc1ccc(Cl)cc1C(=O)Nc1ccc(Cl)cc1
MIC [1]: 1.56 µg/mL (≈ 3.83 µM)
MIC (Mycolicibacterium aurum): 1.56 µg/mL (≈ 3.83 µM)
IC50 (HepG2 [2]): > 250 µM
MIC (Mycobacterium kansasii [3]): 32 µM (≈ 13 µg/mL)
MIC (Mycobacterium kansasii [4]): 8 µM (≈ 3.26 µg/mL)
MIC (Mycobacterium avium [5]): 16 µM (≈ 6.52 µg/mL)
Ratio [6]: >125
Ratio (Mycobacterium kansasii [7]): >250
MIC (Mycobacterium kansasii [8]): 32 µM (≈ 13 µg/mL)
MIC (Mycobacterium kansasii [9]): 8 µM (≈ 3.26 µg/mL)
MIC [10]: 16 µM (≈ 6.52 µg/mL)
MIC [11]: 16 µM (≈ 6.52 µg/mL)
MIC (Mycobacterium avium [12]): 16 µM (≈ 6.52 µg/mL)
inhibition [13]: 13%
MIC [14]: 3.12 µg/mL (≈ 7.67 µM)
MIC (Mycobacterium kansasii [15]): 16 µM (≈ 6.52 µg/mL)
selectivity ratio (in vitro): > 15.6
Ratio (Mycobacterium kansasii [16]): >250
IC50 (HepG2 [17]): 33.6 µM
MIC (Mycobacterium kansasii [18]): 8 µM (≈ 3.26 µg/mL)

O=C(Nc1ccccc1)Oc1ccc(Cl)cc1C(=O)Nc1ccc(F)cc1
MIC [1]: 1.98 µg/mL (≈ 5.15 µM)
MIC (Mycolicibacterium aurum): 1.98 µg/mL (≈ 5.15 µM)
IC50 (HepG2 [2]): > 20 µM
MIC (Mycobacterium kansasii [3]): 32 µM (≈ 12.3 µg/mL)
MIC (Mycobacterium kansasii [4]): 16 µM (≈ 6.16 µg/mL)
MIC (Mycobacterium avium [5]): 32 µM (≈ 12.3 µg/mL)
Ratio [6]: >125
Ratio (Mycobacterium kansasii [7]): >250
MIC (Mycobacterium kansasii [8]): 16 µM (≈ 6.16 µg/mL)
MIC (Mycobacterium kansasii [9]): 16 µM (≈ 6.16 µg/mL)
MIC [10]: 4 µM (≈ 1.54 µg/mL)
MIC [11]: 8 µM (≈ 3.08 µg/mL)
MIC (Mycobacterium avium [12]): 32 µM (≈ 12.3 µg/mL)
inhibition [13]: 16%
MIC [14]: 3.12 µg/mL (≈ 8.12 µM)
MIC (Mycobacterium kansasii [15]): 8 µM (≈ 3.08 µg/mL)
selectivity ratio (in vitro): > 2.5
Ratio (Mycobacterium kansasii [16]): >250
IC50 (HepG2 [17]): 3.25 µM
MIC (Mycobacterium kansasii [18]): 8 µM (≈ 3.08 µg/mL)
